Laboratory results from patent US10863753B2, “Iron-fortified tea preparations and methods of making same” (The Governing Council of the University of Toronto, priority 2015, dated 2020).
Values joined by “and” are separate entries in the source; they are usually repeats but may differ in a detail not shown here. Equal values may be shown once. Read-outs that look alike come from different tables or passages of the source.

Experiments:
[1] = Complexation of iron in gallic acid solution (spectrophotometry); conditions: for Reduction of iron polyphenol complex formation: gallic acid; for Iron gallic acid complex: 0.3 mM iron
Method: To approximate brewed tea, a concentration of 1 g/L and pH 5 were used. Binding of iron was also tested at pH 7 to approximate the pH of the small intestine. Hydrochloric acid and sodium hydroxide were used to adjust and maintain the pH. […] Since the iron-gallate complex is coloured, spectrophotometry was used to quantify the complex formation.

[2] = assay type: physicochemical; conditions: for Precipitation in tea extract / Reduction of iron-polyphenol complex formation: tea extract 1 gGAE/L
Method: The tea extract was prepared using a solution of 50% by volume N,N-dimethylformamide (DMF) and 50% by volume reverse osmosis purified (RO) water with black tea leaves. […] Tea extract was diluted to the concentration of tea (1 gGAE/L) or to 1/10th of that concentration (0.1 gGAE/L) for use in these experiments and pH was controlled using hydrochloric acid and sodium hydroxide.
Iron complex formation was measured using spectrophotometry and analyzed by normalizing against ferrous sulfate in gallic acid (GA) at the phenolic concentration of tea. Therefore, 100% represents the peak absorbance of ferrous sulfate in a 1 g/L gallic acid solution at pH 5 or pH 7.

[3] = Iron-polyphenol complex formation in brewed tea (spectrophotometry / colour); assay type: physicochemical
Method: Iron polyphenol complex was measured using spectrophotometry. 2 L of tea were freshly prepared and brewed for 5 minutes. Tea leaves were removed and the liquid was distributed into 6 beakers (250 ml each). A stock solution of ferric EDTA was prepared and increasing volumes were added to each beaker. The maximum UV and Visible light absorbance wavelength for the tea was determined Absorbance at this maximum absorbance wavelength was measured after 5, 20 and 60 minutes. […]
Complex formation was determined using spectrophotometry. […] The maximum UV and visible light wavelength absorbance for the iron-tea polyphenol complex was determined. The maximum absorbance was 580 nm at tea pH and fortified teas were measured after 5, 20 and 60 minutes.

[4] = system: Caco-2 cells; test: Caco-2 cell transport, bioavailable fraction in basolateral chamber (Example 3)
Method: The digested liquid was diluted to half with buffer in order to ensure cells survival during the experiment, and the basolateral camera was filled with 2 ml of buffer. […] The liquid from the basolateral camera was collected and sent for iron analysis using AAS.

[5] = In vitro bioaccessibility, simulated pepsin and pancreatin/bile digestion (Example 3); assay type: in vitro ADME; conditions: in tea, no EDTA protection
[6] = target pH 5, tea extract 0.1 gGAE/L, 0.3 mM iron
[7] = target pH 7, tea extract 0.1 gGAE/L, 0.3 mM iron
[8] = iron source added to tea without EDTA protection
[9] = iron source with EDTA protection, molar ratio 1:2

SMILES | Reduction of iron polyphenol complex formation ([1]; pH 5) | Reduction of iron polyphenol complex formation ([1]; pH 7) | Iron gallic acid complex ([1]; target pH 5, 1 g/L gallic acid) | Iron gallic acid complex ([1]; target pH 7, 1 g/L gallic acid) | Iron Complex (% FS in 1 g/L GA) [2, 6] | Iron Complex (% FS in 1 g/L GA) ([2]; target pH 5, tea extract 0.1 gGAE/L, 0.3 mM iron, listed as Ferric sodium EDTA) | Iron Complex (% FS in 1 g/L GA) ([2]; target pH 5, tea extract 1 gGAE/L, 0.3 mM iron) | Iron Complex (% FS in 1 g/L GA) [2, 7] | Iron Complex (% FS in 1 g/L GA) ([2]; target pH 7, tea extract 0.1 gGAE/L, 0.3 mM iron, listed as Ferric sodium EDTA) | Iron Complex (% FS in 1 g/L GA) ([2]; target pH 7, tea extract 1 gGAE/L, 0.3 mM iron) | Precipitation in tea extract [2] | Reduction of iron-polyphenol complex formation ([2]; pH 5) | Reduction of iron-polyphenol complex formation ([2]; pH 7) | Iron-polyphenol complex formation (colour) [3, 8] | Iron-polyphenol complex formation (colour) [3, 9] | Increased bioavailability with an excess of EDTA versus no protection ([4]; in fortified tea) | Bioavailability of iron ([4]; in tea, added without EDTA protection) | Iron Complex (% FS in 1 g/L GA) ([2]; pH 5) | Iron Complex (% FS in 1 g/L GA) ([2]; pH 7) | Bioaccessibility of iron [5]
O=C([O-])CN(CCN(CC(=O)[O-])CC(=O)[O-])CC(=O)[O-].[Fe+3].[Na+] [FeNaEDTA, ferric sodium EDTA] | 94%±3% | 93%±2% | 6.2 ± 0.2% | 7.0 ± 0.5% | 3.0 ± 0.2 % FS in 1 g/L GA | 3 % FS in 1 g/L GA | 4 ± 6 % FS in 1 g/L GA | 3.0 ± 0.7 % FS in 1 g/L GA | 3 % FS in 1 g/L GA | 70 ± 8 % FS in 1 g/L GA | not cause precipitation | 96% | 30% | complex was formed | effective in avoiding complex formation |  |  |  |  | 
O=C([O-])/C=C/C(=O)[O-].[Fe+2] [ferrous fumarate] |  |  | 103 ± 3.0% | 110 ± 2.0% | 65 ± 2 % FS in 1 g/L GA |  |  | 66 ± 3 % FS in 1 g/L GA |  |  | precipitation occurs |  |  | iron-polyphenol complex was formed instantaneously | effective in avoiding complex formation | 4 fold | 16% and 12% |  |  | 
O=S(=O)([O-])[O-].[Fe+2] [ferrous sulphate] |  |  | 100 ± 3.0% | 100 ± 2.0% |  |  |  |  |  |  |  |  |  | iron-polyphenol complex was formed instantaneously | effective in avoiding complex formation |  |  | 72 ± 2 % FS in 1 g/L GA | 85 ± 1 % FS in 1 g/L GA | lowest bioaccessibility
